From ChEMBL document CHEMBL5634130, “Exploring the structural-activity relationship of hexahydropyrazino[1,2-d]pyrido[3,2-b][1,4]oxazine derivatives as potent and orally-bioavailable PARP7 inhibitors” (Eur J Med Chem, 2023) come the findings set out here.

Structures are written as SMILES. Activity calls are given as the source filed them. Where only a bound is given, the exact number is not on record here.

Data set [1] deals with NCI-H1373. The data set can be described thus: Antiproliferative activity against human NCI-H1373 cells assessed as inhibition of cell viability incubated for 4 days by luminescence based assay. Particulars: NCI-H1373, 96 h.
In data set [2] the target is T1, Protein mono-ADP-ribosyltransferase TIPARP (Homo sapiens, UniProt Q7Z3E1).
T1 sequence (Q7Z3E1 whole entry): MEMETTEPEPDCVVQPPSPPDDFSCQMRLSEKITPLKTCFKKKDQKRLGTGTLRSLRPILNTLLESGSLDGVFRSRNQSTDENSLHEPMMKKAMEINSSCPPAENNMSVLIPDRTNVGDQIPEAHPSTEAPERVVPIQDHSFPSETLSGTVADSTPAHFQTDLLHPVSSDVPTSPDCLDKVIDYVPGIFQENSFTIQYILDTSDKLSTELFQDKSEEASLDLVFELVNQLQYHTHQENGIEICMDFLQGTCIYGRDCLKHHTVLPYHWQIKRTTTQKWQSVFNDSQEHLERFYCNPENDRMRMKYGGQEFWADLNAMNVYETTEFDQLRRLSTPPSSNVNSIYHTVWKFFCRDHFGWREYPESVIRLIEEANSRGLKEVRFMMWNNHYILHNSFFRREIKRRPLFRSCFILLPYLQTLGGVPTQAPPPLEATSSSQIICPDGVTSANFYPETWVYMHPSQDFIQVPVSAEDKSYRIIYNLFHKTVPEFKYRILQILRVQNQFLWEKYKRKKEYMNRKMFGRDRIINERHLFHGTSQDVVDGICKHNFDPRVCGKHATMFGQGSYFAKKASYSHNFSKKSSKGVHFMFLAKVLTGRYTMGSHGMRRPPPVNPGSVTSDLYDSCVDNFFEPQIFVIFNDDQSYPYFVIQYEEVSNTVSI
The data set can be described thus: Inhibition of PARP7 (unknown origin) using histone as substrate incubated for 1 hr by chemiluminescence assay.

Data set [3] in a line: Toxicity in […] SCID mouse model xenografted with human NCI-H1373 cells assessed as animal death at 30 mg/kg, po measured for 21 days. Conditions: in vivo, 504 h, time 21 day. It is filed as organism-based.
Data set [4] is described as follows: Half life in fasted ICR mouse at 2 mg/kg, iv measured for 24 hrs by LC-MS analysis. The class given is ADME, organism-based. Particulars: in vivo.
Data set [5] can be described thus: Oral bioavailability in fasted ICR mouse at 10 mg/kg measured for 24 hrs by LC-MS analysis. It is filed as ADME, organism-based. Conditions: in vivo.
The next data set concerns RAW264.7. Kind of data set: Inhibition of PARP7 in mouse RAW264.7 cells assessed as increase in IFN-beta level incubated for 24 hrs by ELISA. The class given is cell-based. In general terms: In an ELISA, binding on a coated surface is turned into a signal by an enzyme label.
Data set [6] can be described thus: Clearance in fasted ICR mouse at 2 mg/kg, iv measured for 24 hrs by LC-MS analysis. The class given is ADME, organism-based. Particulars: in vivo.
A short description of data set [7]: Tmax in fasted ICR mouse at 10 mg/kg, po measured for 24 hrs by LC-MS analysis. The class given is ADME, organism-based. Particulars: in vivo.
A short description of data set [8]: Half life in fasted ICR mouse at 10 mg/kg, po measured for 24 hrs by LC-MS analysis. Conditions: in vivo. It is filed as ADME, organism-based.
Another data set concerns MDA-MB-436. Kind of data set: Antiproliferative activity against human MDA-MB-436 cells assessed as inhibition of cell viability at 0.1 uM incubated for 7 days by luminescence based assay. The class given is functional. Conditions: time 7.0 day.
Data set [9] in a line: Toxicity in […] SCID mouse model xenografted with human NCI-H1373 cells assessed as body weight loss at 30 mg/kg, po measured for 21 days. Conditions: in vivo, 504 h, time 21 day. The class given is organism-based. Background: Xenograft models place foreign cells or tissue in a host animal.
Data set [10] in a line: Volume of distribution at steady state in fasted ICR mouse at 2 mg/kg, iv measured for 24 hrs by LC-MS analysis. The class given is ADME, organism-based. Conditions: in vivo, read-out: Vdss.
In data set [11] the test system is NCI-H1373. Kind of data set: Antitumor activity against human NCI-H1373 cells xenografted in […] SCID mouse model assessed as tumor growth inhibition at 30 mg/kg, po administered everyday measured after 21 days relative to control. The class given is functional. Conditions: NCI-H1373, 504 h, time 21 day, read-out: TGI.
Data set [12] can be described thus: AUC in fasted ICR mouse at 10 mg/kg, po measured for 24 hrs by LC-MS analysis. The class given is ADME, organism-based. Particulars: in vivo.
Data set [13] is described as follows: AUC in fasted ICR mouse at 2 mg/kg, iv measured for 24 hrs by LC-MS analysis. The class given is ADME, organism-based. Conditions: in vivo.
Data set [14] in a line: Cmax in fasted ICR mouse at 10 mg/kg, po measured for 24 hrs by LC-MS analysis. Conditions: in vivo. It is filed as ADME, organism-based.

Consider `CC(COC[C@H](C)Nc1cn[nH]c(=O)c1C(F)(F)F)C(=O)N1CCN2c3ncc(C(F)(F)F)cc3OC[C@@H]2C1` (some centres undefined), for which the IC50 (commonly the concentration at which inhibition is half-maximal) with NCI-H1373 [1] was found to be 973 nM.
As for `C[C@@H](COCCC(=O)N1CCN2c3ncc(Cl)cc3OCC2C1)Nc1cn[nH]c(=O)c1C(F)(F)F` (some centres undefined), the IC50 in the data set on NCI-H1373 [1] was 106 nM.
Take `O=C(CCOC[C@@H]1CCCN1c1cn[nH]c(=O)c1C(F)(F)F)N1CCN2c3ncc(C(F)(F)F)cc3OC[C@@H]2C1`: the 50% inhibitory concentration (IC50) in the data set on NCI-H1373 [1] came out at 310 nM; in data set [2], 13.8 nM.
The matching figures for `O=C(CCOC1CC(Nc2cn[nH]c(=O)c2C(F)(F)F)C1)N1CCN2c3ncc(C(F)(F)F)cc3OC[C@@H]2C1` (some centres undefined): 398 nM and 63 nM.
As to `C[C@@H](COc1cnc(N2CCN3c4ncc(C(F)(F)F)cc4OC[C@@H]3C2)nc1)Nc1cn[nH]c(=O)c1C(F)(F)F`, the IC50 in the data set on NCI-H1373 [1] is 1950 nM.
As to `C[C@@H](COCCC(=O)N1CCN2c3ncc(C(F)(F)F)cc3OC[C@H]2C1)Nc1cn[nH]c(=O)c1C(F)(F)F`, the figures for the 50% inhibitory concentration (IC50) (with NCI-H1373 [1]; in data set [2]) were 85 nM and 3.3 nM, respectively.
Take `Cc1cnc2c(c1)OCC1CN(C(=O)CCOC[C@H](C)Nc3cn[nH]c(=O)c3C(F)(F)F)CCN21` (some centres undefined): the half-maximal inhibitory concentration (IC50) in the data set on NCI-H1373 [1] came out at 954 nM.
Regarding `C[C@@H](COCCC(=O)N1CCN2c3ncc(C(F)(F)F)cc3OC[C@@H]2C1)Oc1cn[nH]c(=O)c1C(F)(F)F`, the Activity entry in [3] and in data set [9] was “Non-Toxic” throughout. Besides, the values for the 50% inhibitory concentration (IC50) (in the data set on NCI-H1373 [1]; in data set [2]) were 15 nM and 1.75 nM, respectively. For the same molecule, the half-life (usually the time needed for the level to fall by half in the phase considered) in data set [4] is 102 min. Besides, in data set [5], the bioavailability (usually the share of a dose that reaches the circulation, judged against a reference dose that is usually intravenous) stood at 53.9%. Further, the inhibition result in the data set on RAW264.7 is “Active”. In addition, the clearance (commonly a measure of how efficiently the substance is removed, as volume per time) in data set [6] amounted to 50.6 mL/min/kg. Moreover, the Tmax (as a rule, the time from dosing to the highest level) in [7] worked out at 15 min. This molecule had a t1/2 in data set [8] of 264 min. The outcome in the data set on MDA-MB-436 was inactive. Besides, the Vd in [10] stood at 0.668 L/kg. Also, the inhibition in vivo at 30 mg/kg in the data set with NCI-H1373 [11] is 62.4%. Also, in data set [12], the AUC (usually the area under the concentration-time curve, a measure of exposure) is 1835 ng·h/mL. The same molecule gave an area under the curve (AUC) at 24 h in data set [13] of 682 ng·h/mL. In addition, the concentration in data set [14] peaked (Cmax) at 1840 ng/mL.
Regarding `O=C(CCOCC1CCN1c1cn[nH]c(=O)c1C(F)(F)F)N1CCN2c3ncc(C(F)(F)F)cc3OC[C@@H]2C1` (some centres undefined), the IC50 with NCI-H1373 [1] was determined as 6 nM; in [2], 0.71 nM.
Consider `C[C@@H](COCCC(=O)N1CCN2c3ncc(C(F)(F)F)cc3OC[C@@H]2C1)Nc1cn[nH]c(=O)c1C(F)(F)F`, for which the IC50 came to 77 nM in the data set with NCI-H1373 [1] and 1.86 nM in data set [2]. In addition, in data set [4], the half-life was 30 min. Besides, the bioavailability in data set [5] amounted to 22.3%. Moreover, the clearance in data set [6] amounted to 61 mL/min/kg. In [7], the Tmax is 15 min. Moreover, the t1/2 in data set [8] was 120 min. For the same molecule, the Vd in [10] is 0.104 L/kg. In data set [12], the area under the curve (AUC) was 306 ng·h/mL. In [13], this molecule gave an AUC at 24 h of 274 ng·h/mL. For the same molecule, the concentration in data set [14] peaked (Cmax) at 408 ng/mL.
As for `CC(COCCC(=O)N1CCN2c3ncc(C(F)(F)F)cc3OC[C@@H]2C1)Nc1cn[nH]c(=O)c1C(F)(F)F` (mixture of isomers), the IC50 was 156 nM in the data set with NCI-H1373 [1] and 9.4 nM in data set [2].
As for `CC(COCCC(=O)N1CCN2c3ncc(C(F)(F)F)cc3OC[C@H]2C1)Nc1cn[nH]c(=O)c1C(F)(F)F` (mixture of isomers), the values for the 50% inhibitory concentration (IC50) (in the data set with NCI-H1373 [1]; in [2]) were 180 nM and 12.8 nM, respectively.
In the case of `C[C@@H](COCCC(=O)N1CCN2c3ncc(C(F)(F)F)cc3OCC2C1)Nc1cn[nH]c(=O)c1C(F)(F)F` (mixture of isomers), the IC50 in the data set on NCI-H1373 [1] turned out to be 88 nM; in [2] it was 2.1 nM.
As for `CC(COCCC(=O)N1CCN2c3ncc(C(F)(F)F)cc3OCC2C1)Nc1cn[nH]c(=O)c1C(F)(F)F` (racemic), the IC50 in the data set with NCI-H1373 [1] was 175 nM; in data set [2] it was 10.3 nM.
In the case of `C[C@@H](COCCC(=O)N1CCN2c3ncc(C#N)cc3OCC2C1)Nc1cn[nH]c(=O)c1C(F)(F)F` (some centres undefined), the IC50 in the data set on NCI-H1373 [1] worked out at 255 nM.
Regarding `C[C@@H](CN1CCC(C(=O)N2CCN3c4ncc(C(F)(F)F)cc4OC[C@@H]3C2)C1)Nc1cn[nH]c(=O)c1C(F)(F)F` (some centres undefined), in the data set on NCI-H1373 [1], the IC50 was 908 nM.
Consider `C[C@@H](CN1CC(C(=O)N2CCN3c4ncc(C(F)(F)F)cc4OC[C@@H]3C2)C1)Nc1cn[nH]c(=O)c1C(F)(F)F`, for which, in the data set with NCI-H1373 [1], the IC50 is over 3000 nM.
As for `O=C(CCOC[C@@H]1CCN1c1cn[nH]c(=O)c1C(F)(F)F)N1CCN2c3ncc(Cl)cc3OC[C@@H]2C1`, the concentration for half-maximal inhibition (IC50) with NCI-H1373 [1] worked out at 14.8 nM; in data set [2], 0.66 nM. This molecule had a half-life in [4] of 36 min. The molecule further showed a bioavailability in data set [5] of 25.8%. The inhibition result with RAW264.7 was “Active”. This molecule returned a clearance in data set [6] of 49.4 mL/min/kg. In addition, in data set [7], the time to peak (Tmax) is 15 min. Moreover, the t1/2 in [8] amounted to 126 min. In addition, the result with MDA-MB-436 was inactive. For the same molecule, the Vd in [10] was 0.638 L/kg. Moreover, the exposure (AUC) in data set [12] came out at 544 ng·h/mL. The same molecule registered an AUC at 24 h in data set [13] of 421 ng·h/mL. For the same molecule, the highest level in data set [14] (Cmax) was 400 ng/mL.
With `C[C@@H](COCCC(=O)N1CCN2c3ncc(F)cc3OCC2C1)Nc1cn[nH]c(=O)c1C(F)(F)F` (some centres undefined), in the data set with NCI-H1373 [1], the IC50 worked out at 694 nM.
